Measurements taken from patent US4223036A, “1-(1,3-Dioxolan-2-ylmethyl)-1H-1,2,4-triazoles” (Janssen Pharmaceutica N.V., priority 1979, dated 1980).
Counter-ions that a name gives are not always drawn.

How the values were obtained:
Candida albicans [1] = experiment: Activity against crop candidosis in turkeys (dose whereby crops of 50% of animals were completely negative); type: in vivo; conditions: medicated feed for 13 consecutive days
Experimental: Experiment B: Activity of Compounds (I) Against Crop Candidosis in Turkeys
Turkeys of 14 days old were infected in the crop with 4.10^6 Candida albicans cells, grown on Sabouraud broth for 48 hours at 37° C. and diluted with saline. The volume of the inoculum was 1 ml. The drug under investigation were premixed in 500 mg of lacton and thereafter admixed in 1000 g of meal without any additives. The concentration of the drug under investigation in the meal was expressed in mg/kg.
The animals were given the medicated feed for 13 consecutive days starting on the day of infection. At the end of the experiment all animals were sacrificed. At autopsy the crops were removed, emptied and grinded in an ultra-turrax mixer in 15 ml of sterile saline. Colony counting was done on Sabouraud agar and the results given in the Tables I, II and III represent the ED50, i.e., the dose of the drug whereby the crops of 50% of the animals were completely negative for Candida albicans.

Candida albicans [2] = experiment: Activity against vaginal candidosis in rats (lowest oral dose active at the 14th day after infection); type: in vivo, Female Wistar rats; set-up: lowest effective oral dose (vaginal candidosis in rats): unit not given here; conditions: oral once a day for two days, active at 14th day after infection; for minimal effective dose: Candida albicans, 336 h; for lowest effective oral dose (vaginal candidosis in rats): Table I
Experimental: Experiment A: Activity of Compounds (I) Against Vaginal Candidosis in Rats
Female Wistar rats of ±100 g body weight were used. They were ovariectomized and hysterectomized and after three weeks of recovery, 100 μg of oestradiol undecylate in sesame oil was given subcutaneously once a week for 3 consecutive weeks. The thus induced pseudooestrus was controlled by microscopic examination of vaginal smears. Food and water were left available ad libitum.
The rats were infected intravaginally with 8.10^5 cells of Candida albicans, grown on Sabouraud broth for 48 hours at 37° C. and diluted with saline. The date of infection varied from day +25 to day +32 after surgical intervention, depending on the appearance of signs of induced pseudo-oestrus.
The drugs under investigation were administered orally once a day for two days starting from the day of infection. For each experiment there were placebo treated controls. The results were assessed by taking vaginal smears with sterile swabs on several days after infection. The swabs were put into Sabouraud broth in petri-dishes and incubated for 48 hours a 37° C. If no growth of Candida albicans occured, i.e., when the animals were negative at the end of the experiment, this was due to drug administration because it never happened in placebo treated controls.
The Tables I, II and III below give the lowest oral dose of the drug under investigation which was found active at the 14th day after infection.

SMILES	ED50 (crop candidosis in turkeys) (Candida albicans [1]; Table I)	lowest effective oral dose (vaginal candidosis in rats) (Candida albicans [2])	further results
Nc1ccc(OC[C@H]2CO[C@](Cn3ccnc3)(c3ccc(Cl)cc3Cl)O2)cc1[N+](=O)[O-] (relative stereo) [Example 4-NH2, cis-4-[2-(2,4-dichlorophenyl)-2-(1H-imidazol-1-ylmethyl)-1,3-dioxolan-4-ylmethoxy]-2-nitrobenzenamine]			ED50 (crop candidosis in turkeys) (Candida albicans [1]; Table III): 31 mg/kg of feed; minimal effective dose (Candida albicans [2]; Table III): 5 mg/kg
S=C=Nc1ccc(OC[C@H]2CO[C@](Cn3ccnc3)(c3ccc(Cl)cc3Cl)O2)cc1 (relative stereo) [NCS, cis-1-[2-(2,4-dichlorophenyl)-4-(4-isothiocyanatophenoxymethyl)-1,3-dioxolan-2-ylmethyl]-1H-imidazole]	125 mg/kg of feed	5	
Nc1ccc(OC[C@H]2CO[C@](Cn3ccnc3)(c3ccc(Cl)cc3Cl)O2)cc1 (relative stereo) [NH2, cis-4-[2-(2,4-dichlorophenyl)-2-(1H-imidazol-1-ylmethyl)-1,3-dioxolan-4-ylmethoxy]benzenamine]	125 mg/kg of feed	5	
CCNc1ccc(OC[C@H]2CO[C@](Cn3ccnc3)(c3ccc(Cl)cc3Cl)O2)cc1 (relative stereo) [NHCH2CH3, cis-4-[2-(2,4-dichlorophenyl)-2-(1H-imidazol-1-ylmethyl)-1,3-dioxolan-4-ylmethoxy]-N-ethylbenzenamine]	31 mg/kg of feed	2.5	
O=CNc1ccc(OC[C@H]2CO[C@](Cn3ccnc3)(c3ccc(Cl)cc3Cl)O2)cc1 (relative stereo) [NHCHO, cis-N-{4-[2-(2,4-dichlorophenyl)-2-(1H-imidazol-1-yl-methyl)-1,3-dioxolan-4-ylmethoxy]phenyl}formamide]	31 mg/kg of feed	2.5	
CCC(=O)Nc1ccc(OC[C@H]2CO[C@](Cn3ccnc3)(c3ccc(Cl)cc3Cl)O2)cc1 (relative stereo) [NHCOC2 H5, cis-N-{4-[2-(2,4-dichlorophenyl)-2-(1H-imidazol-1-ylmethyl)-1,3-dioxolan-4-ylmethoxy]phenyl}propanaide ethanedioate. 2-propanolate]	31 mg/kg of feed	10	
CC(=O)Nc1ccc(OC[C@H]2CO[C@](Cn3ccnc3)(c3ccc(Cl)cc3Cl)O2)cc1 (relative stereo) [NHCOCH3, cis-N-{4-[2-(2,4-dichlorophenyl)-2-(1H-imidazol-1-ylmethyl)-1,3-dioxolan-4-ylmethoxy]phenyl}acetamide]	31 mg/kg of feed	5	
O=C(Nc1ccc(OC[C@H]2CO[C@](Cn3ccnc3)(c3ccc(Cl)cc3Cl)O2)cc1)C(Cl)Cl (relative stereo) [NHCOCH(Cl)2, cis-2,2-dichloro-N-{4-[2-(2,4-dichlorophenyl)-2-(1H-imidazol-1-ylmethyl)-1,3-dioxolan-4-ylmethoxy]phenyl}acetamide]	125 mg/kg of feed	10	
CCNC(=O)Nc1ccc(OC[C@H]2CO[C@](Cn3ccnc3)(c3ccc(Cl)cc3Cl)O2)cc1 (relative stereo) [NHCONHC2 H5, cis-N-{4-[2-(2,4-dichlorophenyl)-2-(1H-imidazol-1-ylmethyl)-1,3-dioxolan-4-ylmethoxy]phenyl}-N'-ethylurea]	125 mg/kg of feed	10	
CNC(=O)Nc1ccc(OC[C@H]2CO[C@](Cn3ccnc3)(c3ccc(Cl)cc3Cl)O2)cc1 (relative stereo) [NHCONHCH3, cis-N-{4-[2-(2,4-dichlorophenyl)-2-(1H-imidazol-1-ylmethyl)-1,3-dioxolan-4-ylmethoxy]phenyl}-N'-methylurea]	125 mg/kg of feed	10	
CCOC(=O)Nc1ccc(OC[C@H]2CO[C@](Cn3ccnc3)(c3ccc(Cl)cc3Cl)O2)cc1 (relative stereo) [NHCOOC2 H5, cis-ethyl {4-[2-(2,4-dichlorophenyl)-2-(1H-imidazol-1-ylmethyl)-1,3-dioxolan-4-ylmethoxy]phenyl}carbamate]	16 mg/kg of feed	5	
COC(=O)Nc1ccc(OC[C@H]2CO[C@](Cn3ccnc3)(c3ccc(Cl)cc3Cl)O2)cc1 (relative stereo) [NHCOOCH3, cis-methyl {4-[2-(2,4-dichlorophenyl)-2-(1H-imidazol-1-ylmethyl-1,3-dioxolan-4-ylmethoxy]phenyl}-carbamate nitrate]	31 mg/kg of feed	5	
CCNC(=S)Nc1ccc(OC[C@H]2CO[C@](Cn3ccnc3)(c3ccc(Cl)cc3Cl)O2)cc1 (relative stereo) [NHCSNHC2 H5, cis-N-{4-[2-(2,4-dichlorophenyl)-2-(1H-imidazol-1-ylmethyl)-1,3-dioxolan-4-ylmethoxy]phenyl}-N'-ethylthiourea]	125 mg/kg of feed	5	
CNC(=S)Nc1ccc(OC[C@H]2CO[C@](Cn3ccnc3)(c3ccc(Cl)cc3Cl)O2)cc1 (relative stereo) [NHCSNHCH3, cis-N-{4-[2-(2,4-dichlorophenyl)-2-(1H-imidzol-1-yl-methyl)-1,3-dioxolan-4-ylmethoxy]-phenyl}-N'-methylthiourea]	125 mg/kg of feed	10	
CS(=O)(=O)N1CCN(c2ccc(OC[C@H]3CO[C@](Cn4cncn4)(c4ccc(Cl)cc4Cl)O3)cc2)CC1 (relative stereo) [SO2CH3]			ED50 (crop candidosis in turkeys) (Candida albicans [1]; Table II): 31 mg/kg of feed; minimal effective dose (Candida albicans [2]; Table II): 1.25 mg/kg
CN(C)c1ccc(OC[C@H]2CO[C@](Cn3ccnc3)(c3ccc(Cl)cc3Cl)O2)cc1 (relative stereo) [cis-4-[2-(2,4-dichlorophenyl)-2-(1H-imidazol-1-ylmethyl)-1,3-dioxolan-4-ylmethoxy]-N,N'-dimethylbenzenamine diethanedioate.hydrate]	31 mg/kg of feed	10	
CCCNC(=O)N1CCN(c2ccc(OC[C@H]3CO[C@](Cn4ccnc4)(c4ccc(Cl)cc4Cl)O3)cc2)CC1 (relative stereo) [cis-4-{4-[2-(2,4-dichlorophenyl)-2-(1H-imidazol-1-yl-methyl)-1,3-dioxolan-4-ylmethoxy]phenyl}-N-propyl-1-piperazinecarboxamide dihydrate]	125 mg/kg of feed	2.5	
CCOC(=O)N1CCN(c2ccc(OC[C@H]3CO[C@](Cn4ccnc4)(c4ccc(Cl)cc4Cl)O3)cc2)CC1 (relative stereo) [drawing 31]	16 mg/kg of feed	2.5	
CCN1CCN(c2ccc(OC[C@H]3CO[C@](Cn4ccnc4)(c4ccc(Cl)cc4Cl)O3)cc2)CC1 (relative stereo) [drawing 37]	31 mg/kg of feed	1.25	
CCOC(=O)N1CCN(c2ccc(OC[C@H]3CO[C@](Cn4ccnc4)(c4ccc(Cl)cc4Cl)O3)cc2)CC1 (relative stereo) [drawing 39, cis-ethyl 4-{4-[2-(2,4-dichlorophenyl)-2-(1H-imidazol-1-ylmethyl)-1,3-dioxolan-4-ylmethoxy]phenyl}-1-piperazinecarboxylate dihydrochloride hemihydrate]			ED50 (crop candidosis in turkeys) (Candida albicans [1]; Table I, dihydrochloride hemihydrate): 31 mg/kg of feed; lowest effective oral dose (vaginal candidosis in rats) (Candida albicans [2]; dihydrochloride hemihydrate): 10
Clc1ccc([C@@]2(Cn3ccnc3)OC[C@H](COc3ccc(N4CCN(Cc5ccccc5)CC4)cc3)O2)c(Cl)c1 (relative stereo) [drawing 46]	31 mg/kg of feed	2.5	
